Reference: patent US20180296559A1, “TREATMENT OF AIRWAY SMOOTH MUSCLE DYSFUNCTION” (priority 2016, published 2018)

How the values were obtained:
Recombinant human PYK2 = Recombinant human PYK2 (Homo sapiens, UniProt Q14289); assay: ADP-based phosphatase-coupled kinase assay (malachite green); format: biochemical; details: 10, 25, or 100 μM compound vs DMSO; PYK2 0.5 and 2 μg/ml
Experimental: FIG. 4. Recombinant human PYK2 was treated with either DMSO or 10, 25, or 100 μM ceritinib. PYK2 activity was measured by using an ADP-based phosphatase-coupled kinase assay. ADP from PYK2 activity releases an inorganic phosphate via a coupling enzyme and is detected using malachite green reagent. The amount of inorganic phosphate released is proportional to the amount of ADP generated during the kinase reaction. Two concentrations of PYK2 (0.5 and 2 μg/ml) were tested.

wild-type mice [1] = assay: In vivo airway resistance following methacholine challenge; details: 100 μl of 5 mM, intraperitoneal, daily for 3 days, vs vehicle
Experimental: FIG. 3. In vivo treatment with NVP-TAE684 decreases cholinergic induced airway hyper-responsiveness. Mice were pretreated with control vehicle (DMSO, black circles) or NVP-TAE684 (grey circles) for 3 days (n=10 animals per group). Airway resistance following methacholine treatment was then determined. Data are shown as mean values with SEM and are fitted with a four-parameter logistic regression algorithm (solid line).
Measurement of in vivo airway resistance. WT mice were pretreated with either PYK2 inhibitor NVP-TAE684 (100 μl of 5 mM, 1% DMSO) or vehicle (1% DMSO) was given via intra-peritoneal injections daily for 3 days prior and including the day of pulmonary measurements. Mice were anesthetized with ketamine (50 or 100 mg/kg) and xylazine (0-10 mg/kg). Following tracheotomy, an 18-gauge cannula was inserted and securely tied with 4.0 braided silk. The animals were then mechanically ventilated with a computer-controlled small-animal ventilator (FlexiVent, SCIREQ, Montreal, Quebec) using a tidal volume of 8 mL/kg at a rate of 180 breaths/min and PEEP of 3.5 cm H2O. Pulmonary resistance was measured by the computer controlled ventilator by interrupting ventilation and imposing broadband low-frequency oscillatory waveforms and then resuming ventilation. […]

[2] = tested on: tracheal airway smooth muscle strips; assay: Airway smooth muscle strip isometric force generation following acetylcholine; format: cell-based, pig
From the text: FIG. 2. NVP-TAE684 decreases airway smooth muscle force generation. Wild-type airway smooth muscle strip isometric force generation following acetylecholine treatment in muscle strips pretreated with control vehicle (DMSO, black circles) or NVP-TAE684 (grey circles) (n=5 animals per group). Data are shown as mean values with SEM and are fitted with a four-parameter logistic regression algorithm (solid line).
Airway smooth muscle tissue and cells. Trachea from newborn WT […] or CFTR^−/− pigs was excised and placed in modified Krebs Solution containing (mM): 120.8 NaCl, 5.9 KCl, 0.2 CaCl2, 1.2 MgCl2, 1.2 NaH2PO4, 2 NaHCO3, 11 d-glucose, and 10 HEPES, pH 7.4. The trachealis muscle was dissected by removing the cartilage and epithelial layers. For force measurements, strips of trachealis smooth muscle were hung in a tissue perfusion system (Radnoti LLC, Monrovia, Calif.). For cell isolation, the remaining medial layers were minced and digested using a papain dissociation system (Worthington, Lakewood, N.J.) based upon previous studies (10). The minced smooth muscle was suspended in Earle's balanced salt solution (EBSS) containing papain (10 U/ml) and DNase (1000 U/ml) and incubated at 37° C. for 1 hr. Collagenase (0.5mg/m1) was added and after 1 hr the mixture triturated. Primary cells were grown to confluence in a 1:1 mixture of DMEM and Ham's F12 on fibrinogen-coated 6-well plates. All solutions contained 100 U/ml penicillin and 0.1 mg/ml streptomycin. Primary culture cells were allowed to grow for 8-10 d until confluent. […]
Measurement of airway smooth muscle force generation. […] The contractile activity was recorded with Grass isometric force transducers and amplifiers connected to a Biopac data acquisition system (Biopac Systems, Goleta, Calif.). […] The smooth muscle force from NVP-TAE684 or DMSO pretreated strips was determined by obtaining concentration-response curves to acetylcholine (10^−9 to 10^−2 M) in the muscle bath. […]

[3] = tested on: porcine precision cut lung slices; assay: Airway contraction in precision cut lung slices in response to methacholine; format: cell-based; details: WT newborn pig lung slices pretreated overnight with 10 μM compound vs DMSO
From the text: FIG. 1. NVP-TAE684 decreases airway contraction in porcine precision cut lung slices. Percent airway lumen area contraction in response to methacholine in porcine precision cut lung slices pretreated with control vehicle (DMSO, black circles) or NVP-TAE684 (grey circles), normalized to maximal contractile response (n=6 animals per group). Data are shown as mean values with SEM and are fitted with a four-parameter logistic regression algorithm (solid line).
Precision cut lung slice preparation. Precision cut lung slices were isolated as previously described (11) from wild type newborn pigs. Lung slice culture media consisted of Dulbecco's Modified Eagle Medium (Gibco, Big Cabin, Okla.), 10% fetal bovine serum (Gibco, Big Cabin, Okla.), 1% penicillin-streptomycin (5,000 U/mL, Gibco, Big Cabin, Okla.), and 0.1% gentamicin (50 mg/mL, Gibco, Big Cabin, Okla.).
For the porcine lung slice studies, the tracheal bronchus from collected tracheal lobes was cannulated with a 24 G IV catheter (BD Medical) and a tight seal was created using suture. The tracheal lobe was instilled with approximately 10 mL of 2% UltraPure Low Melting Point agarose (Invitrogen, Carlsbad, Calif.) solution and cooled at −20° C. for 30 min. […] For all PCLS experiments, maximal airway contraction was analyzed for each dose by lumen area measurements performed in ImageJ (NIH). […]

wild-type mice [4] = assay: Morphologic analysis of histological sections of treated mice; format: in vivo
[5] = pretreated with 10 μM compound vs DMSO

Sequence of Recombinant human PYK2 (Q14289 whole entry): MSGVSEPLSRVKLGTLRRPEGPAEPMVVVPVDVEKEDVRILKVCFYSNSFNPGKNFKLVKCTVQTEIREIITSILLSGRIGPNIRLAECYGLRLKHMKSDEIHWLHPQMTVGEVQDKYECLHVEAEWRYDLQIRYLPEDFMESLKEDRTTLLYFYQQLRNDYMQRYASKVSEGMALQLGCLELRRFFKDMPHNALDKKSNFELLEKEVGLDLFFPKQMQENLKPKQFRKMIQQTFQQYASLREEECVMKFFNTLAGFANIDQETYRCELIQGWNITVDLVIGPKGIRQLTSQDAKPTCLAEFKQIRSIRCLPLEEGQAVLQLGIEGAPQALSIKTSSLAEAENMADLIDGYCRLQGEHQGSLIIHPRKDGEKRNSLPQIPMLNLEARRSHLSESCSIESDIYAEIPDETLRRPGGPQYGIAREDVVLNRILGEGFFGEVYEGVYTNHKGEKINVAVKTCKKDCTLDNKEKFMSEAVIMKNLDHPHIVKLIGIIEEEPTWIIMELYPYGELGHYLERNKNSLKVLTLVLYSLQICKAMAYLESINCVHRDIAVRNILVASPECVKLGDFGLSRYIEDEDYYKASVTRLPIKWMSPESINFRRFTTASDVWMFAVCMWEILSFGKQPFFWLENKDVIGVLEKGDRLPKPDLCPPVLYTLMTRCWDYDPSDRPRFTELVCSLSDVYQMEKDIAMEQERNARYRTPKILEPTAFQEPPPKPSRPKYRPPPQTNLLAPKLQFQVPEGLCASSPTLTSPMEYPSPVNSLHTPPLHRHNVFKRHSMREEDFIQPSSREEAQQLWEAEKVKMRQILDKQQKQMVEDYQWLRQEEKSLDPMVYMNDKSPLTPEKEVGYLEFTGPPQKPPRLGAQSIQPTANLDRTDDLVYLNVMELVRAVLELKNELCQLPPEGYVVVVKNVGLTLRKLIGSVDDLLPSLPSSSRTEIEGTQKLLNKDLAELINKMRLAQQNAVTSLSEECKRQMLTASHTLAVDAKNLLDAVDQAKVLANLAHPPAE

PYK-2 activity (Recombinant human PYK2) | SMILES | respiratory response to inhaled methacholine (airway resistance) (wild-type mice [1]) | maximal force production ([2]; newborn WT pig tracheal muscle strips pretreated with 10 μM compound, acetylcholine dose response) | force generation in tracheal smooth muscle strips across all doses of acetylcholine [2, 5] | median effective concentrations of acetylcholine, compound-pretreated vs DMSO-pretreated strips [2, 5] | airway narrowing in response to increasing dosages of methacholine, measured by luminal area [3] | drug-induced toxicity in histological sections of heart, kidney, and liver (wild-type mice [4]; mouse, in vivo) | changes in epithelia, cartilage or airway smooth muscle layers (lung parenchyma, conducting airways, trachea sections) (wild-type mice [4]; treated mice vs vehicle control mice)
dose-dependent decrease | Cc1cc(Nc2ncc(Cl)c(Nc3ccccc3S(=O)(=O)C(C)C)n2)c(OC(C)C)cc1C1CCNCC1 [ceritinib] |  |  |  |  |  |  | 
 | COc1cc(N2CCC(N3CCN(C)CC3)CC2)ccc1Nc1ncc(Cl)c(Nc2ccccc2S(=O)(=O)C(C)C)n1 [NVP-TAE684] | significantly decreased | 40 mN | decreased force generation | no significant differences | decreased the airway narrowing | no evidence of drug-induced toxicity | no significant changes
